Measured values as given in patent publication US11167015B2, “Arginine and its use as a T cell modulator” (INSTITUTE FOR RESEARCH IN BIOMEDICINE, priority 2016, dated 2021).

Assays:
human naïve CD4+ T cells = assay: Cytokine analysis (IFN-gamma); format: cell-based
Method: 10^5 naïve T cells were stimulated with plate bound anti-CD3 (5 μg ml^−1) and anti-CD28 (1 μg ml^−1) in the presence of IL-12 (10 ng/ml, R&D Systems) to polarize cells towards a Th1 phenotype. After 48 h, cells were transferred into U-bottom plates and IL-2 (10 ng/ml, R&D Systems) was added. Three days later, supernatants were collected and interferon-γ was quantified using FlowCytomix assays (eBioscience). Samples were analyzed on a BD LSR Fortessa FACS instrument and quantification was performed with the FlowCytomix Pro 3.0 software. For re-stimulation, cells were cultured for 5 h in the presence of 0.2 μM phorbol 12-myristate 13-acetate (PMA) and 1 μg/ml ionomycin (both from Sigma).

activated (96 h) T cells = assay: Measurements of oxygen consumption rate (Seahorse); format: cell-based, human; conditions: medium supplemented with 3 mM L-arginine, 96 h activated
Method: Measurements were performed using a Seahorse XF-24 extracellular flux analyzer (Seahorse Bioscience). Naïve CD4^+ T cells were sorted and activated with plate-bound CD3 and CD28 antibodies in complete medium or medium supplemented with 3 mM L-arginine. Four days later (in the morning), cells were pooled, carefully count and plated (7×10^5 cells/well) in serum-free unbuffered RPMI-1640 medium (Sigma) onto Seahorse cell plates coated with Cell-Tak (BD Bioscience). The serum-free unbuffered medium was not supplemented with L-arginine. Oligomycin (1.4 μM, Sigma), Carbonyl cyanide-4-(trifluoromethoxy)phenylhydrazone (FCCP, 0.6 μM, Sigma) and antimycin (1.4 μM, Sigma) were injected.

N=C(N)NCCC[C@H](N)C(=O)O [L-arginine]
IFN-gamma secretion (human naïve CD4+ T cells; L-arginine-supplemented medium, 10 ng/ml IL-12, supernatants after 5 days): much less
IFN-gamma secretion after re-activation (human naïve CD4+ T cells; re-activation for 5 h with PMA/Ionomycin): comparable amounts
mitochondrial spare respiratory capacity (SRC) (activated (96 h) T cells): augmented
oxygen consumption increase (activated (96 h) T cells): 1.7 fold
